Holding throughout (assay type): cell-based
The subject of data set [1] is C. albicans. The data set can be described thus: ATP bioluminescence assay (extracellular ATP release). On the procedure: The extracellular ATP levels upon challenging C. albicans with B4010 were determined as reported before (Koshlukova et al., 1999). Cells (OD600≈0.6) were incubated […] with or without various additives for 2 hours at 37° C. with orbital shaking. […] Each tube was then centrifuged at 5000 g for 5 mins. Then 225 μL of boiling TE buffer (50 mM Tris, 2 mM EDTA, pH 7.8) was added to the 25 μl of the supernatant and mixed well. This mixture was boiled again for another 2 minutes and stored at 4° C. until further examination. 100 μL of a luciferin-luciferase ATP assay mixture was added to 100 μL of the supernatant and luminescence was monitored using the Infinite M200 microplate reader (Tecan Group Ltd., Switzerland). […] For dose-dependent studies, the concentration of the peptide was varied from 0.4-44 μM. The extracellular ATP concentration was determined from calibration curve obtained by ATP assay kit (Molecular Probes, OR, USA) as per the manufacturer's instruction.

The next data set relates to S. cerevisiae. As to the method: A few identical colonies from WT and mutant strains were immediately inoculated and grown overnight in SD broth containing 0.1 mg/ml ampicilin at 30° C. Cells were harvested by centrifugation, washed with sterile water and frozen. Cells were plated again on SD agar plates and incubated at 37° C. for 48 h. Two or three identical colonies of the mutant strains were collected and inoculated in SD broth. Peptides were dissolved in sterile water and mixed with WT and mutant strains and incubated at 37° C. for 48 or 72 h in a test tube. The lowest concentration of the peptide that inhibited the growth of the yeast strain was determined by visual inspection.

In data set [2] the test system is C. albicans. The data set can be described thus: diS-C3-5 membrane depolarisation assay. On the procedure: Change in membrane potential of C. albicans upon addition of B4010 was monitored by the release of potential sensitive probe diS-C3-5 dye. Briefly, 1 ml of overnight grown mid-log phase Candida cells in 5 mM HEPES buffer (pH 7.0) was mixed with 10 μM diS-C3-5 dye and incubated at 37° C. for 1-2 h in a thermo shaker. 800 μL of the dye-loaded cell suspension was transferred to a stirred quartz cuvette and the change in fluorescence intensity was monitored at an emission wavelength (λem) of 670 nm (excitation wavelength, 622 nm) using a Quanta Master spectrofluorimeter (Photon Technology International, NJ, USA). The excitation and emission bandwidths were set at 1 and 2 nm, respectively. Once a constant fluorescence level was achieved, 10 μL of concentrated peptide solution in HEPES buffer was added so that the final concentration of peptide was 0.22-22 μM. The change in fluorescence intensity was monitored continuously for 1 or 2 h. To study the effects of energy poisons and ion-channel inhibitors, the additives were added prior to the addition of 5.5 μM B4010. The change in fluorescence intensity was monitored as before.

Data set [3] deals with C. albicans. The conditions noted are these: 50% tear fluid. On the procedure: For all the experiments, unless otherwise stated, ATCC 10231 strain was used. B4010 (1 mg/ml) was incubated with trypsin (enzyme:peptide ratio 1:100) at 37° C. 20 μL aliquot of this mixture was withdrawn at various time intervals (0.5, 1, 2, 4 and 6 h) and mixed with 1 μL of trypsin inhibitor. The antifungal activity of the peptide was determined by adding this mixture to 180 μl of inoculum and monitoring the growth at OD600 for 24 h. Similar experiments performed in the presence of trypsin/trypsin inhibitor (without B4010) were used as a positive control. For assessing the antifungal activity in tear fluid (TF), the peptide was dissolved in freshly collected rabbit TF and incubated at 37° C. for 6 h. After incubation, an equal volume of an overnight culture of C. albicans (˜10^6 CFU/ml) was mixed with peptides in tear fluid and incubated at 37° C. for 24 h. The final concentrations of the peptide were at 4.4, 8.8 and 22 μM. A 100 μL aliquot of serial dilutions (10^2 or 10^3 times) of this mixture were inoculated on a SD agar plate and then incubated for 48 h at 37° C. Culture alone and culture with 50% tear fluid served as the positive control. The data was expressed in % killing with respect to culture without tear fluid.

In data set [4] the test system is C. albicans. As to the method:
For the effects of energy poisons and ion channel inhibitors, yeast cells (10^5-10^6 CFU/ml) were incubated for 2 h with or without additives at 37° C. A final concentration of 5.5 μM B4010 peptide was added to the cell suspension and incubated further for another 1.5 h at 37° C. Each cell suspension was further diluted and 100 μl of the cells were plated and incubated at 37° C. SDA plates with additives (and no peptide) served as the positive control. Cell viability was obtained by counting the number of colonies formed in each plate after 48 h incubation at 37° C. The final concentrations of the additives were: CCCP (5 μM), NaN3 (5 mM), 4-AP (1 mM), NPPB (0.5 mM), […] (1 mM) and tetra ethyl ammonium chloride (15 mM). The reported values were averages of two independent duplicate experiments. Control experiments with all the additives were also performed to assess the toxicity of the additives to C. albicans.

≈ marks a conversion by molar mass, not a printed value. Where two headings read alike, the source gives them in different places. Where a SMILES comes first, the peptide text is derived from it. Bridges are numbered along the chain shown (N, C = ends). Roman numbers before positions name the chains, in order.

For `CC(C)[C@H](NC(=O)[C@H](CCCCN)NC(=O)[C@H](CCCNC(=N)N)NC(=O)CNC(=O)[C@@H](N)CCCNC(=N)N)C(=O)N[C@H](C(=O)N[C@@H](CCCNC(=N)N)C(=O)N[C@@H](CCCNC(=N)N)C(=O)NCCCC[C@H](NC(=O)[C@H](CCCNC(=N)N)NC(=O)[C@H](CCCNC(=N)N)NC(=O)[C@@H](NC(=O)[C@@H](NC(=O)[C@H](CCCCN)NC(=O)[C@H](CCCNC(=N)N)NC(=O)CNC(=O)[C@@H](N)CCCNC(=N)N)C(C)C)C(C)C)C(=O)NCCCC[C@H](NC(=O)[C@H](CCCCNC(=O)[C@H](CCCNC(=N)N)NC(=O)[C@H](CCCNC(=N)N)NC(=O)[C@@H](NC(=O)[C@@H](NC(=O)[C@H](CCCCN)NC(=O)[C@H](CCCNC(=N)N)NC(=O)CNC(=O)[C@@H](N)CCCNC(=N)N)C(C)C)C(C)C)NC(=O)[C@H](CCCNC(=N)N)NC(=O)[C@H](CCCNC(=N)N)NC(=O)[C@@H](NC(=O)[C@@H](NC(=O)[C@H](CCCCN)NC(=O)[C@H](CCCNC(=N)N)NC(=O)CNC(=O)[C@@H](N)CCCNC(=N)N)C(C)C)C(C)C)C(=O)N[C@@H](CCCCN)C(=O)O)C(C)C` [Peptide B4010] (I: H-RGRKVVRRKKK-OH / II: H-RGRKVVRRK / III: H-RGRKVVRR / IV: H-RGRKVVRR; amide I:9-IV:C, I:10-II:C, II:9-III:C; N-terminus and C-terminus assumed), in the data set with C. albicans [1] (4×MIC), the “time to maximum ATP efflux” value is at most 30 min. Besides, the “concentration of maximum ATP release” value with C. albicans [1] (dose-dependent study) is recorded as “around 4 ×MIC”. For the same compound, the MIC with S. cerevisiae (RH448, Wildtype, Ergosterol (77%)) amounted to 5.5 µM (≈ 25.1 µg/mL); against S. cerevisiae (RH5684, erg6Δ), 2.8 µM (≈ 12.8 µg/mL); in the data set on S. cerevisiae (RH5812, erg2Δ) it was 1.4 µM (≈ 6.39 µg/mL); in the data set with S. cerevisiae (RH5930, erg3Δerg6Δ), 1.4 µM (≈ 6.39 µg/mL); against S. cerevisiae (RH6826, 7-deoxycholesterol), 2.8 µM (≈ 12.8 µg/mL); against S. cerevisiae (RH6827, Campasterol), 2.8 µM (≈ 12.8 µg/mL). Further, in the data set on S. cerevisiae (RH6829, Cholesterol), the MIC worked out at 2.8 µM (≈ 12.8 µg/mL). In addition, the “decrease in MIC of ergΔ mutants compared to the wild type” value with S. cerevisiae (all the ergΔ mutants) was 2-4 fold. Besides, the “decrease in MIC compared to the wild type” value in the data set on S. cerevisiae (erg2Δ, erg3Δ, erg3Δerg6Δ and erg4Δerg5Δ) is recorded as 4 folds. In addition, the “increased sensitivity compared to the wild type” value in the data set on S. cerevisiae (erg2Δerg6Δ and erg6Δ) is recorded as 2 fold. Moreover, in the data set on C. albicans [2] (5 mM NaN3 before B4010), the “reduction in fluorescence intensity in azide-treated cells compared to control cells” value was about 25 fold. In the data set with C. albicans [2] (upon addition of B4010), the “time course of depolarization” value is “occurred instantaneously”. Besides, the candidacidal activity entry in the data set with C. albicans [3] (22 μM) is recorded as “no loss of activity”; in the data set with C. albicans [3] (4.4 and 8.8 μM), “moderately suppressed”. In addition, the loss of viability in the data set on C. albicans [4] is listed as 54±6%. For the same compound, the figures for the “protection from B4010-induced lethality” value in the data set with C. albicans [4] (cells pre-incubated with CCCP) and with C. albicans [4] (presence of NaN3) were “partial protection” and “complete protection”, respectively. In the data set with C. albicans [4] (cells pretreated with TEA and 4-AP), the viability entry is listed as “significant loss of viability”.

The values above are taken from patent publication US20150225454A1, “TETRABRANCHED PEPTIDES AND ANALOGUES AS A NEW CLASS OF ANTIMICROBIALS AND THEIR PREPARATION THEREOF” (priority 2012, published 2015).
